Read-outs that look alike come from different tables or passages of the source.
Experiments:
h5-HT1AR = target: T1, h5-HT1AR (Homo sapiens, UniProt P08908); assay: Radioligand binding, [3H]8-OH-DPAT displacement
T1 construct: purchased Perkin Elmer, Inc. (Waltham, MA, USA)
T1 sequence (P08908 1-422): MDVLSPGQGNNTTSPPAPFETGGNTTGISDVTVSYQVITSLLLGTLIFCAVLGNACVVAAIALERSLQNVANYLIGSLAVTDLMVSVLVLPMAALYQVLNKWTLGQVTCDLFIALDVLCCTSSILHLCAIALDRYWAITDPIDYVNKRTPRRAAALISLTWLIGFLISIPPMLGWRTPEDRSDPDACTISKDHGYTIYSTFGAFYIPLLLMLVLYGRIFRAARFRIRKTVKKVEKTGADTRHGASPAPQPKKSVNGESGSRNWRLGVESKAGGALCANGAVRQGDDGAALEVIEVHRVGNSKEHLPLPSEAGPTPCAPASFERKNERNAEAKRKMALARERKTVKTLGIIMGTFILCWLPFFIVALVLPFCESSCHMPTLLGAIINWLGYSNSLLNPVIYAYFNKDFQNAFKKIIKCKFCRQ
Method: Binding assays were performed as described previously. Briefly, membrane preparations expressing h5-HT1AR, h5-HT2AR or hSERT (see Supplementary Material) were incubated with radiolabeled selective ligands 0.4 nM [^3H]8-OH-DPAT, 1 nM [^3H]ketanserin or 3 nM [^3H]imipramine, respectively. The drugs were diluted in the corresponding binding buffer and tested at increasing concentrations in duplicate. Binding reactions were performed in tubes containing the drug dilutions; 25 μl of the corresponding radioligand; and the membranes (10 μg and 5 μg/500 μL for 5-HT1AR and 5-HT2AR, respectively, and 15 μg/100 μL for hSERT), all diluted in binding buffer. […] Incubation was performed for 1 h at 27 °C for 5-HT1A/2AR and 22 °C for hSERT, according to the manufacturer’s protocol (Perkin Elmer, Inc., Waltham, MA, USA) and previous studies - saturation and kinetic experiments, respectively. The binding reactions were stopped by rapid filtration through GF/B glass microfiber filters pre-soaked with 0.5% polyethyleneimine and washing with ice-cold wash buffer. The filters were placed into vials and scintillation cocktail was added. The trapped radioactivity was quantified. Specific binding was defined as the difference between total binding (binding buffer alone) and non-specific binding. Experiments were conducted per duplicate for at least three independent experiments.

SERT = target: T2, SERT (Homo sapiens, UniProt P31645); assay: [3H]5-HT uptake inhibition in HEK293 cells expressing hSERT; type: cell-based
T2 construct: YFP (yellow-fluorescent protein); expressed in transfected cells
Method: See the Supplementary Material for cell culture procedures. The medium was removed from each well and replaced with 200 μL/well of Krebs-HEPES-Buffer (KHB). The cells were pre-incubated for 5 min with different concentrations of drug in KHB at 50 μL/well. […] The incubation solution was aspirated and the cells were washed with ice-cold KHB and lysed with 1% sodium dodecyl sulfate (SDS). The lysate was collected into vials and scintillation liquid was added. The radioactivity was quantified using a beta-scintillation counter (Perkin Elmer, Waltham, MA, USA). Non-specific uptake was determined in the presence of 30 μM paroxetine. Data were expressed as percentage of control uptake (absence of tryptamine).
The generation and maintenance of HEK293 cells stably expressing the yellow-fluorescent protein (YFP)-tagged version of the human isoform of SERT (hSERT) (Perkin Elmer, Waltham, MA, USA) was carried out as described previously. For uptake inhibition and batch release assays, cells were seeded onto previously poly-D-lysine (PDL)-coated 96-well plates at a density of 0.036 million cells per well [5]. For superfusion release assays, cells were seeded onto a previously coated with PDL 6 channel µ-slide at a density of 0.08 million cells per channel. Prior to patching, cells were grown in DMEM containing 10% FBS, Zeocin (150 µg/mL) and Blasticidin (6 µg/mL) for positive selection of transporter-expressing clones. The cells were seeded at a low density on PDL-coated 35 mm plates 24-48 hr prior to patching. For membrane preparation, HEK293 cells expressing hSERT transporters were harvested from 80–90% confluent dishes as described elsewhere. Protein concentration was determined using the Bio-RadProtein Reagent (Bio Rad Laboratories, Hercules, CA, USA). Membrane preparations were stored at −80°C until use. Generation and maintenance of CHO-K1 cells expressing the human isoform of 5-HT2AR (h5-HT2AR) was carried out as described in the manufacturer’s protocol (Perkin Elmer, Waltham, MA, USA). Routine DAPI-Staining assays tested negative in mycoplasma contamination.

[1] = system: head twitch response in mice; assay: Head twitch response (HTR); type: in vivo; conditions: mice, i.p.; for HTR Emax (95% CI): 10-min period
Method: HTR studies were adapted from. Mice (N = 8–10 per group) were injected intraperitoneally (i.p.) with saline or the appropriate tryptamine dose (0.3, 1, 3, 10, or 30 mg/kg) and placed into the observation arena (25 × 25 × 40 cm). A camera mounted above the observation cage recorded the mice for the next 10 min after the injection. Another batch of animals (N = 8–10) received subcutaneous injections of either saline or the respective antagonist (WAY100635 1 mg/kg for 5-HT1AR or ketanserin 1 mg/kg for 5-HT2AR). After a 10-min interval, the animals were i.p. injected with the corresponding tryptamine (10 mg/kg) and placed in the observation arena. Animal behavior was recorded for the next 10 min after the last injection, as mentioned before. Video recordings were examined by two blind observers blinded to the treatments, who assessed the number of head twitches, defined as a rapid rotational jerk of the head which is not contiguous with any grooming behavior [39].
Data were expressed as means±standard deviation (SD). Competition, release and functional assays, and substrate-induced current curves were plotted and fitted by non-linear regression to obtain the IC50, EC50, and Emax values. For behavioral studies, data were fitted by non-linear regression and pED50 and Emax values (with the corresponding 95% CI) were estimated by means of a software (GraphPad Prism 10) that further extrapolates the data. The Cheng-Prusoff equation was used to calculate Ki (affinity): Ki = […]/(1 + [radioligand-concentration/Kd]). HTR curves were fitted using a Gaussian equation as described. Data from batch release assays were statistically analyzed with a mixed-effects model, employing Šidák’s correction for multiple comparisons. Total release at each concentration and the behavioral experiments with the corresponding antagonists were statistically analyzed using one-way ANOVA, followed by Tukey’s post-hoc test. Molecular volume (van der Waals) was calculated using a grid approximation (spacing 0.75 Å). logP was calculated using Molinspiration Cheminformatics software. For in vivo studies, one-way ANOVA with Dunnet’s post-hoc test was used to compare all conditions to saline in dose-response experiments when data were normally distributed. Otherwise, a non-parametric test (Kruskall-Wallis with Dunn’s post-hoc test) was used. Alpha was set at 0.05. Outliers were excluded following ROUT’s method (Q = 0.1%). All statistical analyses and Pearson correlations were conducted using GraphPad Prism 10 software (GraphPad software, San Diego, CA, USA).

[2] = 0.4 nM [3H]8-OH-DPAT, N ≥ 3, read-out: 5-HT1AR Ki ± SD
[3] = read-out: 5-HT uptake inhibition IC50 ± SD, HEK293 hSERT, N ≥ 3

T2 sequence (P31645 whole entry): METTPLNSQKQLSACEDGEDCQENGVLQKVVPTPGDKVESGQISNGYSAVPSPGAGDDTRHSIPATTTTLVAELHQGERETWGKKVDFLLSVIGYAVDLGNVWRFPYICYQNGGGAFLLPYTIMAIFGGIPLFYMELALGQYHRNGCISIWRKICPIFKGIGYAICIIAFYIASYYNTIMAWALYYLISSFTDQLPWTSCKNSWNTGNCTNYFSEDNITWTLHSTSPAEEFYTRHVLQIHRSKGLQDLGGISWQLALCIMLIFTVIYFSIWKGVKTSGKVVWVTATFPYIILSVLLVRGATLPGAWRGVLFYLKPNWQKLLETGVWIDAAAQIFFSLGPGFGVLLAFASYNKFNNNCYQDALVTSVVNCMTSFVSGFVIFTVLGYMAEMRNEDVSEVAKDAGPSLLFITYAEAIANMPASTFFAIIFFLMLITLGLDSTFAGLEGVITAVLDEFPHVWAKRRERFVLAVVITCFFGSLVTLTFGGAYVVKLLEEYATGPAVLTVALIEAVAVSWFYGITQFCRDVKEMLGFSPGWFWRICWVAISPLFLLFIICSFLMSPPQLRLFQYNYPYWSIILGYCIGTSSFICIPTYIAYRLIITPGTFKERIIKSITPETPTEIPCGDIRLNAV

Structure (SMILES) | Ki (h5-HT1AR; [2]) | IC50 (SERT; [3]) | HTR Emax (95% CI) [1] | HTR ED50 ([1]; 10 min after injection) | Ki (h5-HT1AR) | IC50 (SERT) | ED50 ([1]; Mus musculus, ip, 10 min, 10 min after injection)
C=CCN(CC=C)CCc1c[nH]c2ccc(OC)cc12 [5-MeO-DALT] | 3.26 ± 0.39 nM | 22300 nM | 10.4 (8.5–12.4) HTR events | 4.16 mg/kg | – | – | –
COc1ccc2[nH]cc(CCN(C)C(C)C)c2c1 [5-MeO-MIPT] | 24.8 ± 7.6 nM | 29800 nM | 14.19 (11.7–16.68) HTR events | 0.791 mg/kg | – | – | –
CCN(CC)CCc1c[nH]c2ccc(OC)cc12 [5-MeO-DET] | 4.93 ± 0.62 nM | 60000 nM | 9.73 (7.61–11.85) HTR events | 2.32 mg/kg | – | – | –
COc1ccc2[nH]cc(CCN3CCCC3)c2c1 [5-MeO-pyr-T] | 0.577 ± 0.195 nM | 2760 ± 1430 nM | 10.0 (6.9–13.1) HTR events | 7.29 mg/kg | – | – | –
CCN(CCc1c[nH]c2ccc(OC)cc12)C(C)C [5-MeO-EIPT] | 18.4 ± 8.4 nM | 22200 nM | 9.27 (7.10–11.44) HTR events | 10.6 mg/kg | – | – | –
COc1ccc2[nH]cc(CCN(C(C)C)C(C)C)c2c1 [5-MeO-DIPT, 5-methoxy-N,N-diisopropyltryptamine] | – | – | 10.5 (8.5–12.5) HTR events | – | 15.8 ± 1.3 nM | 24200 nM | 0.477 mg/kg
CCN(C)CCc1c[nH]c2ccc(OC)cc12 [5-MeO-MET] | 3.11 ± 0.51 nM | 30100 nM | 28.4 (23.5–33.2) HTR events | 2.72 mg/kg | – | – | –

Source: paper PMC11412900 (Molecular Psychiatry, 2024)
